Data reported in patent US6680199B1, “In vitro activation of mammalian oocytes” (Infigen, Inc., priority 1993, dated 2004).
Marks after values point to notes of the source that are not given here.

Key:
[1] = tested on: 42-hour oocyte derived nuclear transfer (NT) embryos; test: Development of 42-hour oocyte derived nuclear transfer embryos; assay type: cell-based, bovine; conditions: 1.9 mM DMAP with room temperature activation (RTC) 2 hours; 140 NTs to culture; 6 to 7 days
Protocol: Bovine oocytes were obtained and placed in maturation media for approximately 20 hours. The cumulus cells were then stripped off the oocytes according to the previously described procedures.
The oocytes were then enucleated according to Prather et al. and placed in CR1aa maturation medium until 40 hours had elapsed. The oocyte were then placed in CR1aa maturation medium with 1.9 mM DMAP for 2 hours and incubated at room temperature activation (RTC) conditions (about 25° C.).
Following incubation, embryonic cells were transferred into the oocytes and the 2 cells were electrically fused together according to the procedures described in Prather et al., with the exception of the step of waiting until 42 hours to activate via RTC (25° C.) and adding DMAP prior to the time of electrofusion. The fused nuclear transfer embryos were then cultured in maturation medium CR1aa for 6 to 7 days to determine developmental rates to the blastocyst stage.

[2] = tested on: 20-hours oocytes derived nuclear transfers; test: Development of 20-hour oocyte derived nuclear transfers (fused after activation); assay type: cell-based, bovine; conditions: treatment at 20 hours maturation after enucleation, 4 hours DMAP with or without ionomycin 5 μM 4 min
Protocol: This experiment was conducted under similar conditions as Experiment 6 with the exception that the oocytes were either placed directly in DMAP (young oocytes) or given in ionomycin (5 μM) treatment for 4 minutes plus DMAP treatment immediately after enucleation, i.e., at 20 hours maturation. At the end of the DMAP treatment, approximately 24 hours, embryonic cells were transferred into the oocytes and electrofusion was induced. The concentration of activating chemicals used were the same as those described in Experiment 6. The embryos were placed in maturation medium CR1aa for 6 to 7 days to determine developmental rates to blastocyst stage.

[3] = tested on: bovine oocytes matured for 24 hours; test: Parthenogenic development of activated oocytes (initial cleavage, blastocyst, blastocyst cell number); assay type: cell-based; conditions: for Development to Blastocyst (± se): after ionomycin 5 μM, day 7-8 of culture; for cell number in resulting parthenote blastocysts, Good / cell number in resulting parthenote blastocysts, Poor: after ionomycin
Protocol: (§1) The cumulus was removed from matured oocytes by vortexing vigorously in 200 μl or TL-HEPES for 3 min. The denuded oocytes were diluted in 3 changes of TL-HEPES to separate the oocytes from the cumulus cells. Where indicated, the oocytes were exposed to 5 μM ionomycin (5 mM stock in DMSO; Calbiochem, La Jolla, Calif.) in TL-HEPES (1 mg/ml fatty acid free BSA) for 4 min. The oocytes were then diluted into TL-HEPES (30 mg/ml fatty acid BSA) for 5 min followed by dilution into TL-HEPES (1 mg/ml Fraction V BSA). The oocytes were then moved to 50 μl drops of embryonic cell development media (U.S. Pat. No. 5,096,822 to Rosenkrans et al., with or without DMAP (1.9 mM) for the indicated times (39° C., 5% CO2 in air). Embryonic cell development media contained 114.6 mM NaCl, 3.1 mM KCl, 5 mM hemi-calcium lactate, 0.4 mM Na pyruvate, 1 mM glutamine, 3 mg/ml fatty acid free BSA, MEM nonessential amino acids and BME amino acids.
In experiments that determined development potential of the parthenotes, activated oocytes were cultured for 7-8 days in embryonic cell development media. On the date after activation, initial cleavage was determined by visual observation. On day 4 of incubation 5% heat treated fetal calf serum was added to each drop. For some experiments, blastocysts were mounted and fixed in acetic acid:alcohol (1:3) and stained with 1% orcein dissolved in 40% acetic acid to determine cell numbers.
Experiments 2a and 2b determined the effect of time of incubation in DMAP on activation and development. In Experiment 2a, oocytes were incubated in DMAP for 15, 30, 60, 150 and 300 minutes. At the end of the incubation time indicated, oocytes were rinsed in TL-HEPES (1 mg/ml Fraction V BSA) and placed into embryonic cell development medium until 5 hours had elapsed. At 5 hours, a subsample of oocytes was removed and mounted to determine activation. The remaining oocytes were returned to the incubator for 7-8 days. Blastocytes on day 7-8 were rated as good or poor and cell number was determined.
Experiment 2b was similar in design except that oocytes were incubated for 2 hours, 3 hours, 4 hours, or 5 hours in DMAP.

[4] = tested on: bovine oocytes matured for 24 hours; test: Parthenogenic activation of in vitro matured bovine oocytes (activation, pronuclear formation); assay type: cell-based; conditions: for Activation of oocytes, result in words / Chromosome / pronuclear outcome, result in words: Experiment 1, 5 hours of culture, FIG. 1b-1d; for % Activation / % Pronuclear formation: oocytes matured 24 h, ionomycin 5 μM 4 min and/or DMAP for 5 hours, determined after 5 hours of culture
Protocol: Bovine oocytes were obtained at an abattoir and transported to the laboratory in saline (30-34° C., transport time 2-6 hr). Oocytes from small follicles (1-6 mm) were aspirated and matured according to the methods described in Sirard et al., 1988. Briefly, oocytes were diluted out of the follicular fluid with 3 dilutions of TL HEPES modified by removing glucose, adding 0.22 mM pyruvate and 1 mg/ml of BSA (Fraction V, Sigma Chemical CO, St. Louis, Mo.).
The oocytes were placed in 50 μl drops of TCM-199 (Earle's Salts; Gibco, Grand Island, N.Y.) supplemented with 10% heat treated fetal calf serum, 0.22 mM pyruvate, 5 μg/ml FSH-P (Scherring-Plough Animal Health Corp., Kenilworth, N.J.) and 1 μ/ml estradiol. Ten oocytes were incubated in a 50 μl drop under paraffin oil for 24 hours at 39° C. in 5% CO2 in air humidified atmosphere.
as §1
Activation was evaluated at times indicated in each experiment. The oocytes were mounted on slides, fixed with acetic acid:alcohol (1:3) and observed with Nomarski optics. Special care was taken in determining if metaphase plates were metaphase II or aberrant metaphase III (Kubiak, 1989). Oocytes that contained a metaphase I or II plate were considered not activated. Oocytes that contained anaphase, telophase or metaphase […] plates or pronuclei were considered to be activated.
Experiment 1 determined the effect of sequential exposure of oocytes to ionomycin and DMAP. One level of ionomycin (5 μM) and DMAP (1.9 mM) was used throughout all studies. The oocytes were cultured for 5 hours after ionomycin incubation with or without DMAP. Control oocytes were cultured in embryonic cell development medium alone. Activation was determined after 5 hours of culture. […]
Experiment 3 was designed to determine the kinetics of activation when oocytes were exposed to ionomycin alone or to ionomycin followed by a 3 hour incubation in DMAP. At the end of the 3 hour incubation, oocytes in DMAP were diluted in TL-HEPES (1 mg/ml Fraction V BSA) and moved to embryonic cell development medium until mounting. A sample of oocytes from both treatments were mounted at 1, 2, 3, 4 and 5 hours after exposure to ionomycin to determine the activation state.
Experiment 4 was designed to determine the time at which DMAP is necessary for parthenogenic activation relative to the exposure to ionomycin. The oocytes were exposed to ionomycin and placed in embryonic cell development medium. At 0, 1, 2, 2.5, 3 and 4 hours after ionomycin exposure, oocytes were placed in embryonic cell development medium+DMAP. At 5 hours post ionomycin exposure, the oocytes were mounted to determine their activation state.

[5] = Experiment 3, FIG. 2, time after exposure to ionomycin

With CN(C)c1ncnc2nc[nH]c12 [DMAP, 6-dimethylaminopurine] the “Number Blastocyst” value [1] was 40, the “Number Blastocyst, percent” value [1] was 29% and the “Number Usable Blastocyst” value [1] was 18. The “Number Usable Blastocyst, percent” value [1] was 13%, the “% Usable” value ([2]; cultured 6 to 7 days) was 0% and the “Development Rate to Blastocyst” value ([2]; cultured 6 to 7 days) was 0%. For the same compound, the “Cleavage Rate” value ([2]; fused after activation) was 4%, the “Development to Blastocyst (± se)” value ([3]; Experiment 2b, DMAP incubation 0 h (ionomycin alone)) was 0^a % and the “Development to Blastocyst (± se)” value ([3]; 6-DMAP 1.9 mM incubation 15 min) was 0^a %. For the same compound, the “Development to Blastocyst (± se)” value ([3]; 6-DMAP 1.9 mM incubation 30 min) was 0^a %, the “Development to Blastocyst (± se)” value ([3]; 6-DMAP incubation 0 min (ionomycin alone)) was 0^a % and the “cell number in resulting parthenote blastocysts, Good” value (“cell number … Good” for short) ([3]; DMAP incubation 2 h) was 88.7. For the same compound, the “cell number … Good” value ([3]; DMAP incubation 3 h) was 70.1, the “cell number in resulting parthenote blastocysts, Poor” value (“cell number … Poor” for short) ([3]; DMAP incubation 3 h) was 33.1 and the “cell number … Good” value ([3]; DMAP incubation 4 h) was 73.6. For the same compound, the “cell number … Poor” value ([3]; DMAP incubation 4 h) was 40.1, the “cell number … Good” value ([3]; DMAP incubation 5 h) was 83.7 and the “cell number … Poor” value ([3]; DMAP incubation 5 h) was 44. For the same compound, the “Activation of oocytes, result in words” value [4] was “did not activate the oocytes”, the “Chromosome / pronuclear outcome, result in words” value [4] was “caused the chromosomes to form a tight clump in the cytoplasm” and the “Effect of interval from ionomycin treatment to exposure to DMAP, result in words” value ([4]; Experiment 4, FIG. 3, interval more than 1 hour, mounted 5 hours post ionomycin) was “increase in ability to resume meiosis”. The “% Activation” value [4] was 7.8 ± 5.5^a % and the “% Pronuclear formation” value [4] was 7.8 ± 5.5^a %.

With C[C@H](CCC(=O)O)C[C@H](C)C[C@H](C)C(=O)/C=C(\O)[C@H](C)C[C@H](C)C/C=C/[C@@H](C)[C@@H](O)[C@@H](C)[C@@H](O)C[C@@H]1CC[C@@](C)([C@H]2CC[C@@](C)([C@@H](C)O)O2)O1 [Ionomycin, ionomycin] the “Activation of oocytes, result in words” value [4] was “activated the oocytes to a high level”, the “Chromosome / pronuclear outcome, result in words” value [4] was “instead of forming pronuclei the chromosomes reassembled into a metaphase plate” and the “Time by which oocytes had resumed meiosis” value [4, 5] was ≤ 1 h. For the same compound, the “Time by which oocytes were arrested in metaphase III” value [4, 5] was 4 to 5 h, the “% Activation” value [4] was 57.8 ± 7.8^b % and the “% Pronuclear formation” value [4] was 8.9 ± 7.3^a %.
